Measurements: patent US20030176689A1, “Inhibitors of hepatitis C virus protease” (priority 2001, published 2003)
Square brackets hold non-standard residues; d marks the D form. Ends that are not written are not given here. Peptide text beside a SMILES is read from it. Cha = N[C@@H](CC1CCCCC1)C(=O)O; Pen = CC(C)(S)[C@H](N)C(=O)O

Legend:
HCV = settings: PBMCs from an HCV-infected patient, 4 days, NS3 Western blot; preliminary, first experiment
Procedure: This induces production of HCV in these cells. The PBMCs were grown in the presence of varying concentrations of Peptides 1, 3, or 5 for 4 days, and then harveted, lysed, and analyzed by SDS-PAGE followed by Western blot using monoclonal antibodies that specifically bind HCV NS3 protease. The blots were then stripped and probed with antibodies for SHP-1 as a loading control.

NS3 and wt NS4A = NS3 and wt NS4A (Hepatitis C virus genotype 1a, UniProt P27958); assay: Inhibition of cleavage of 5A-pNA by NS3 and wt NS4A; type: biochemical, HCV; settings: for inhibition of cleavage of 5A-pNA by NS3 and wt NS4A: FIG. 12
NS3 and wt NS4A, sequence (P27958 1027-1207): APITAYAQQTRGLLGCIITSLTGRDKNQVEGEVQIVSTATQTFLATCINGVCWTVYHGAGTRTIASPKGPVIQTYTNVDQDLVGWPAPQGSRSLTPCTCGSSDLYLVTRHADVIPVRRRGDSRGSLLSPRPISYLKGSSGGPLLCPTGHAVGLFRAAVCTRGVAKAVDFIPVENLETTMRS
Procedure: Again, lower case letters indicate the D-amino acid. Cha represents cyclohexylalanine. The peptides were assayed for inhibition of cleavage of 5A-pNA by NS3 and wt NS4A.

HCV NS3 protease domain = target: T1, HCV NS3 protease domain (Hepatitis C virus genotype 1a, UniProt P27958); assay: FAC-MS (frontal affinity chromatography with in-line MS) binding to immobilized NS3
T1 construct: immobilization of the NS3 protease domain on streptavidin coated beads; made in house; host or cells: E. coli
T1 sequence (P27958 1027-1208): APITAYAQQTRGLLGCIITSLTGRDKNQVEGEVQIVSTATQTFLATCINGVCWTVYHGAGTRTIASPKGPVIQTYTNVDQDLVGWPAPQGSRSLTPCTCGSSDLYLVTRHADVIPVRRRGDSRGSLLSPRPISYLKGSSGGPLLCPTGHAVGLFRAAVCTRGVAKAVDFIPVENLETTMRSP
From the text: An assay using frontal affinity chromatography (FAC) with an in-line mass spectrometer (MS) as described by Schriemer et al. 1998 Agnew. Chem. Int. Ed. 37, 3383-3387 (referred to as FAC-MS) was adapted to identify NS3 protease inhibitors. Briefly, a HCV NS3 protease domain was cloned into a site in a vector that allows for the recombinant NS3 protein to be biotinylated when expressed in E. coli. This provides for immobilization of the NS3 protease domain on streptavidin coated beads which are packed into a miniaturized column. The column is connected in-line to a mass spectrometer. This arrangement facilitates assaying combinatorial compounds individually from a library of peptides for activity in binding the immobilized NS3 protease domain. As the library is continually infused through the column, each compound produces a sigmoidal curve as its elution profile.
The inventors first examined the ability of mutant NS4A peptides to bind to NS3 using the FAC-MS assay described in Example 1. The sequence of the peptides described here is described by the wild-type residue modified, the position of the residue in the wildtype NS4A polypeptide, and the residue substituted at that position. […] “Pen” refers to Penacillamine; “chA” refers to β-cyclohexylalanine; “t” refers to “tert” (so that, for example, “t-L” refers to tert-leucine. […]

NS3 [1] = target: T2, NS3 (Hepatitis C virus genotype 1a, UniProt P27958); assay: Activation of NS3 by mutant NS4A peptides using 5A-pNA as the substrate; type: biochemical, HCV; settings: for kcat: substrate 5A-pNA, extrapolated to infinite NS4A concentration
T2 sequence (P27958 1027-1207): as the sequence (P27958 1027-1207) above
Procedure: (§1) Binding of the peptides was then analyzed by enzyme kinetics to detect whether the mutated NS4A peptides activated NS3-catalysed cleavage of substrates individually. Two NS3 substrates were used: 5ApNA (which contains the P side residues (six of them) of the substrate linked to para-nitroaniline) and 5A/5B (which is the natural cleavage junction that is found between the NS5A and NS5B proteins) using conventional methods (see, e.g., Landro et. al. 1997, Biochemistry 36 p9340-9348; and “Enzyme Kinetics” by Irwin Segel pub: Wiley and Sons, New York 1975 Chapter 5). Values in the tables were obtained by extrapolating the Km and kcat values obtained for substrates at several concentrations of NS4A mutant peptides to infinite NS4A concentration. The Km and kcat values were obtained from double reciprocal plots of initial velocity measurements made at several concentrations of substrate and a constant NS4Aconcentration. Peptide concentrations used in calculations in Table 3 are based on those supplied by the facility that synthesized the peptides at the inventors' direction.

NS3 [2] = target: T2, NS3; assay: Activation of NS3 by mutant NS4A peptides using 5A/5B as the substrate; type: biochemical, HCV; settings: substrate 5A/5B; NS3 batch used for wild-type and V23 mutant peptides
Procedure: as §1

NS3 protease = NS3 protease (Hepatitis C virus genotype 1a, UniProt P27958); assay: Rates of NS3 in the presence of short NS4A peptides; type: biochemical, HCV; settings: substrate 5A-pNA subsaturating; 66 to 360 μM peptide
NS3 protease, sequence (P27958 1027-1207): as above
Procedure: The ability of the short peptides to activate the NS3 protease was tested at several concentrations between 66 and 360 μM peptide. The concentration of substrate 5A-pNA was subsaturating.

CC[C@H](C)[C@H](NC(=O)[C@H](CC1CCCCC1)NC(=O)[C@H](CCCNC(=N)N)NC(=O)[C@H](NC(=O)[C@H](CC1CCCCC1)NC(=O)[C@@H](N)CCCNC(=N)N)C(C)C)C(=O)N[C@@H](CC1CCCCC1)C(N)=O [Peptide 3, R(Cha)vR(Cha)I(Cha)-NH2] (H-R[Cha][dV]R[Cha]I[Cha]-NH2; N-terminus assumed)
inhibition of replication of HCV in tissue culture (HCV): inhibited replication of HCV in tissue culture | IC50 (NS3 and wt NS4A): 163 ± 5 µM | inhibition of cleavage of 5A-pNA by NS3 and wt NS4A (NS3 and wt NS4A): inhibited this reaction

CC[C@H](C)[C@H](NC(=O)[C@H](CCCNC(=N)N)NC(=O)CNC(=O)[C@@H](NC(=O)[C@@H](NC(=O)[C@@H](NC(=O)[C@@H](NC(=O)[C@H](CO)NC(=O)CNC(=O)[C@H](CCCCN)NC(=O)[C@@H](N)CCCCN)C(C)(C)S)C(C)C)[C@@H](C)CC)C(C)C)C(=O)N[C@H](C(=O)N[C@@H](CC(C)C)C(=O)N[C@@H](CO)C(=O)NCC(=O)N[C@@H](CCCCN)C(=O)O)C(C)C [Peptide V23Pen] (H-KKGS[Pen]VIVGRIVLSGK-OH; N-terminus and C-terminus assumed)
Kd (HCV NS3 protease domain): 4.7 µM | kcat (NS3 [1]): 0.0145 ± 0.0015 s⁻¹ | kcat (NS3 [2]): 0.113 ± 0.01 s⁻¹

Ac-DEMEED-OH [Ac-DEMEED-OH]
FAC-MS elution profile (late elution indicates NS3 binding) (HCV NS3 protease domain; Ac-DEMEEX-OH library randomized at P1, FIG. 2): eluted very late | FAC-MS elution time with a known protease inhibitor added to the library (HCV NS3 protease domain; competitive assay, FIG. 3): shifted forward

FFW(Cha)vR(Cha)-NH2 [Peptide 5]
precipitation in the reaction mixture (NS3 and wt NS4A): caused precipitation in the reaction mixture | inhibition of cleavage of 5A-pNA by NS3 and wt NS4A (NS3 and wt NS4A): inhibited this reaction

IVGRIVL [IVGRIVL]
Kd (HCV NS3 protease domain): 103 µM | Rate (NS3 protease): 1.80 µmol/min/mg

KKGSCVIVGRIVLSGK [Peptide V23C]
Kd (HCV NS3 protease domain): 4.8 µM | kcat (NS3 [1]): 0.0197 ± 0.00017 s⁻¹ | kcat (NS3 [2]): 0.124 ± 0.00033 s⁻¹

KKGSFVIVGRIVLSGK [Peptide V23F]
Kd (HCV NS3 protease domain): 3.7 µM | FAC-MS elution (later elution = more tightly bound to NS3) (HCV NS3 protease domain; Val23 substituted NS4A peptides, FIG. 4): eluted last | activation of NS3 catalysed cleavage, rank among peptides mutated at the same position (NS3 [1]; position 23 or position 26 mutants): poorest | kcat (NS3 [1]): 0.00782 ± 0.0005 s⁻¹ | kcat (NS3 [2]): 0.0883 ± 0.005 s⁻¹

KKGSLVIVGRIVLSGK [Peptide V23L]
Kd (HCV NS3 protease domain): 5.1 µM | kcat (NS3 [1]): 0.0157 ± 0.00075 s⁻¹

KKGSVVIVGRIVLSGK [Wild-type, KKGSVVIVGRIVLSGK, reference compound]
Rate (NS3 protease): 37.4 µmol/min/mg

VGRIVL
Rate (NS3 protease): 1.70 µmol/min/mg

VIVGRIVL [VIVGRIVL]
Kd (HCV NS3 protease domain): 88 µM | Rate (NS3 protease): 1.76 µmol/min/mg

VVIVGRI [VVIVGRI]
Kd (HCV NS3 protease domain): 103 µM | Rate (NS3 protease): 1.88 µmol/min/mg

W(Cha)vR(Cha)I(Cha)-NH2 [Peptide 1]
precipitation in the reaction mixture (NS3 and wt NS4A): caused precipitation in the reaction mixture | inhibition of cleavage of 5A-pNA by NS3 and wt NS4A (NS3 and wt NS4A): inhibited this reaction
